From ChEMBL document CHEMBL1201862, “PubChem BioAssay data set” (2004)
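Protocol summary: plate cells (96-well), add compound at 5 concentrations, incubate 48 h, interpolate endpoints linearly. GI50 marks 50% less growth.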 The source made the active and inactive calls. Cut-off read from the data, not from the text of the source: active = GI50 up to about 1.1 µM and inactive = higher.

Tests used:
Assay in all cases: DTP human tumour cell line panel, 48 h
OVCAR-3 = tested on: OVCAR-3
NCI-H23 = tested on: NCI-H23
UACC-62 = tested on: UACC-62
HOP-62 = tested on: HOP-62
LOX IMVI = tested on: LOX IMVI
Hs-578T = tested on: Hs-578T
SW-620 = tested on: SW-620
IGROV-1 = tested on: IGROV-1
NCI-H460 = tested on: NCI-H460
NCI-H226 = tested on: NCI-H226
CCRF-CEM = tested on: CCRF-CEM
SN12C = tested on: SN12C
786-0 = tested on: 786-0
TK-10 = tested on: TK-10
UO-31 = tested on: UO-31
SK-MEL-2 = tested on: SK-MEL-2
MDA-MB-435 = tested on: MDA-MB-435
U-251 = tested on: U-251
HOP-92 = tested on: HOP-92
NCI-H522 = tested on: NCI-H522

## O=C(O)/C=N\N=c1[nH]c2ccccc2[nH]1
OVCAR-3
  GI50: > 100 µM (inactive)
NCI-H23
  GI50: > 100 µM (inactive)
UACC-62
  GI50: > 100 µM (inactive)
HOP-62
  GI50: > 100 µM (inactive)
LOX IMVI
  GI50: > 100 µM (inactive)
Hs-578T
  GI50: > 100 µM (inactive)
SW-620
  GI50: > 100 µM (inactive)
IGROV-1
  GI50: > 100 µM (inactive)
NCI-H460
  GI50: > 100 µM (inactive)
NCI-H226
  GI50: > 100 µM (inactive)
CCRF-CEM
  GI50: > 100 µM (inactive)
SN12C
  GI50: > 100 µM (inactive)
786-0
  GI50: > 100 µM (inactive)
TK-10
  GI50: > 100 µM (inactive)
UO-31
  GI50: > 100 µM (inactive)
SK-MEL-2
  GI50: > 100 µM (inactive)
MDA-MB-435
  GI50: > 100 µM (inactive)
U-251
  GI50: > 100 µM (inactive)
HOP-92
  GI50: > 100 µM (inactive)
NCI-H522
  GI50: > 100 µM (inactive)

## CC1(C)CC[C@]2(C)[C@@H](O)C[C@]3(C)C(=CC[C@@H]4[C@@]5(C)CC[C@H](O)C(C)(C)[C@@H]5CC[C@]43C)[C@@H]2C1
OVCAR-3
  GI50: 65.2 µM (inactive)
NCI-H23
  GI50: 29.4 µM (inactive)
UACC-62
  GI50: 58.7 µM (inactive)
HOP-62
  GI50: 37 µM (inactive)
LOX IMVI
  GI50: 16.4 µM (inactive)
Hs-578T
  GI50: 24.4 µM (inactive)
SW-620
  GI50: > 100 µM (inactive)
IGROV-1
  GI50: 35.9 µM (inactive)
NCI-H460
  GI50: 41.2 µM (inactive)
NCI-H226
  GI50: 35 µM (inactive)
CCRF-CEM
  GI50: > 100 µM (inactive)
SN12C
  GI50: 56.9 µM (inactive)
786-0
  GI50: 33.3 µM (inactive)
TK-10
  GI50: 27.9 µM (inactive)
UO-31
  GI50: 20.4 µM (inactive)
SK-MEL-2
  GI50: 26.4 µM (inactive)
MDA-MB-435
  GI50: > 100 µM (inactive)
U-251
  GI50: 28.7 µM (inactive)
HOP-92
  GI50: 16.2 µM (inactive)
NCI-H522
  GI50: 25.7 µM (inactive)

## COC(=O)C1(NC(=O)C(N)CC(=O)O)C(C)C1C (stereo not given)
OVCAR-3
  GI50: > 100 µM (inactive)
NCI-H23
  GI50: > 100 µM (inactive)
UACC-62
  GI50: > 100 µM (inactive)
HOP-62
  GI50: > 100 µM (inactive)
LOX IMVI
  GI50: > 100 µM (inactive)
Hs-578T
  GI50: > 100 µM (inactive)
SW-620
  GI50: > 100 µM (inactive)
IGROV-1
  GI50: > 100 µM (inactive)
NCI-H460
  GI50: > 100 µM (inactive)
NCI-H226
  GI50: > 100 µM (inactive)
CCRF-CEM
  GI50: > 100 µM (inactive)
SN12C
  GI50: > 100 µM (inactive)
786-0
  GI50: > 100 µM (inactive)
TK-10
  GI50: > 100 µM (inactive)
UO-31
  GI50: > 100 µM (inactive)
SK-MEL-2
  GI50: > 100 µM (inactive)
MDA-MB-435
  GI50: > 100 µM (inactive)
U-251
  GI50: > 100 µM (inactive)
HOP-92
  GI50: > 100 µM (inactive)
NCI-H522
  GI50: > 100 µM (inactive)

## O=C1/C(=C/c2ccc(O)cc2)CCC1CNc1ccc(Cl)cc1 (stereo not given)
OVCAR-3
  GI50: 2.28 µM (inactive)
NCI-H23
  GI50: 5.9 µM (inactive)
UACC-62
  GI50: 0.367 µM (active)
HOP-62
  GI50: 7.43 µM (inactive)
LOX IMVI
  GI50: 0.27 µM (active)
Hs-578T
  GI50: 17.7 µM (inactive)
SW-620
  GI50: 1.37 µM (inactive)
IGROV-1
  GI50: 3.21 µM (inactive)
NCI-H460
  GI50: 4.15 µM (inactive)
NCI-H226
  GI50: 12.6 µM (inactive)
CCRF-CEM
  GI50: 0.624 µM (active)
SN12C
  GI50: 3.94 µM (inactive)
786-0
  GI50: 1.83 µM (inactive)
TK-10
  GI50: 1.72 µM (inactive)
UO-31
  GI50: 3.01 µM (inactive)
SK-MEL-2
  GI50: 14.4 µM (inactive)
MDA-MB-435
  GI50: 3.61 µM (inactive)
U-251
  GI50: 5.7 µM (inactive)
HOP-92
  GI50: 14.7 µM (inactive)
NCI-H522
  GI50: 0.552 µM (active)

## O=[N+]([O-])c1ccc(S(=O)(=O)N=Ic2ccccc2)cc1
OVCAR-3
  GI50: > 100 µM (inactive)
NCI-H23
  GI50: > 100 µM (inactive)
UACC-62
  GI50: > 100 µM (inactive)
HOP-62
  GI50: > 100 µM (inactive)
LOX IMVI
  GI50: > 100 µM (inactive)
Hs-578T
  GI50: > 100 µM (inactive)
SW-620
  GI50: > 100 µM (inactive)
IGROV-1
  GI50: > 100 µM (inactive)
NCI-H460
  GI50: > 100 µM (inactive)
NCI-H226
  GI50: > 100 µM (inactive)
CCRF-CEM
  GI50: > 100 µM (inactive)
SN12C
  GI50: > 100 µM (inactive)
786-0
  GI50: > 100 µM (inactive)
TK-10
  GI50: > 100 µM (inactive)
UO-31
  GI50: > 100 µM (inactive)
SK-MEL-2
  GI50: > 100 µM (inactive)
MDA-MB-435
  GI50: > 100 µM (inactive)
U-251
  GI50: > 100 µM (inactive)
HOP-92
  GI50: > 100 µM (inactive)
NCI-H522
  GI50: > 100 µM (inactive)

## CC(=O)c1ccccc1NCC(=O)Nn1cnc2ccc(S(=O)(=O)Nc3ccccc3C(C)=O)cc2c1=O
OVCAR-3
  GI50: > 100 µM (inactive)
NCI-H23
  GI50: > 100 µM (inactive)
UACC-62
  GI50: > 100 µM (inactive)
HOP-62
  GI50: > 100 µM (inactive)
LOX IMVI
  GI50: > 100 µM (inactive)
Hs-578T
  GI50: 33.7 µM (inactive)
SW-620
  GI50: > 100 µM (inactive)
IGROV-1
  GI50: 2.53 µM (inactive)
NCI-H460
  GI50: > 100 µM (inactive)
NCI-H226
  GI50: > 100 µM (inactive)
CCRF-CEM
  GI50: > 100 µM (inactive)
SN12C
  GI50: > 100 µM (inactive)
786-0
  GI50: > 100 µM (inactive)
TK-10
  GI50: > 100 µM (inactive)
UO-31
  GI50: > 100 µM (inactive)
SK-MEL-2
  GI50: > 100 µM (inactive)
MDA-MB-435
  GI50: > 100 µM (inactive)
U-251
  GI50: > 100 µM (inactive)
HOP-92
  GI50: > 100 µM (inactive)
NCI-H522
  GI50: > 100 µM (inactive)

## COc1c(OC)c(OC)c2c(c1OC)c(=O)c1ccccc1n2C [MELICOPICINE]
OVCAR-3
  GI50: > 100 µM (inactive)
NCI-H23
  GI50: > 100 µM (inactive)
UACC-62
  GI50: > 100 µM (inactive)
HOP-62
  GI50: > 100 µM (inactive)
LOX IMVI
  GI50: > 100 µM (inactive)
Hs-578T
  GI50: > 100 µM (inactive)
SW-620
  GI50: > 100 µM (inactive)
IGROV-1
  GI50: > 100 µM (inactive)
NCI-H460
  GI50: > 10 µM (inactive)
NCI-H226
  GI50: > 100 µM (inactive)
CCRF-CEM
  GI50: > 10 µM (inactive)
SN12C
  GI50: > 100 µM (inactive)
786-0
  GI50: > 100 µM (inactive)
TK-10
  GI50: > 100 µM (inactive)
UO-31
  GI50: > 100 µM (inactive)
SK-MEL-2
  GI50: > 100 µM (inactive)
MDA-MB-435
  GI50: > 100 µM (inactive)
U-251
  GI50: > 100 µM (inactive)
HOP-92
  GI50: > 100 µM (inactive)
NCI-H522
  GI50: > 100 µM (inactive)
